From ChEMBL document CHEMBL1862790, “Optimisation of fenarimol series for the treatment of Chagas disease”
pIC50: −log10 of the molar value.

What was measured:
Trypanosoma cruzi [1] = test: microbe, parasite or virus in culture; assay type: functional, Tulahuen LacZ, Clone C4; details: Trypanosoma cruzi, Tulahuen LacZ, Clone C4
Trypanosoma cruzi [2] = test: microbe, parasite or virus in culture; assay type: functional, organism-based, Tulahuen LacZ, Clone C4
L6 = test: (§1) DNDI: Cytotoxicity against L-6 rat myoblasts from skeletal muscle cells; details: L6 rat skeletal muscle myoblast cells
[3] = as §1; details: L6 rat skeletal muscle myoblast cells
[4] = Trypanosoma cruzi, Tulahuen LacZ, Clone C4

SMILES	IC90 (Trypanosoma cruzi [1]) [nM]	pIC50 (Trypanosoma cruzi [2]; [4])	pIC50 (L6)	pIC50 [3]	pIC50 ([3]; IC50)	pIC50 (Trypanosoma cruzi [2])
O=C(c1ccccc1)N1CCN(C(c2cccnc2)c2ccc(Cl)cc2F)CC1 (centres undefined)	220	7.15	4.16			
COc1ccc(C(O)(c2ccc(Cl)cc2)c2cccnc2)cc1 (centres undefined)	180	7.40	4.17			
O=C(Oc1ccccc1)N1CCN(C(c2ccc(Cl)cc2)c2cccnc2)CC1 (centres undefined)	32	8.10	4.25			
Fc1cc(Cl)ccc1C(c1cncnc1)N1CCN(c2ccccc2)CC1 (centres undefined)	270	7.11	4.20			
CC(C)(C)OC(=O)N1CCN(C(c2ccc(C(F)(F)F)cc2)c2cccnc2)CC1 (centres undefined)	54	7.77	4.25			
OC(c1ccc(Cl)cc1)(c1cccnc1)c1ccccc1C(F)(F)F (centres undefined)		6.91	4.23			
OC(c1ccc(Cl)cc1)(c1ccc(Cl)cc1)c1cncnc1		6.65	4.32			
OC(c1ccc(F)cc1)(c1cncnc1)c1ccccc1Cl (centres undefined) [NUARIMOL]	19500	5.94		< 4.00		
CC(C)(C)OC(=O)NC1CCN(C(c2ccc(C(F)(F)F)cc2)c2cnccn2)CC1 (centres undefined)	400	6.80			4.25	
N#Cc1ccc(C(c2cccnc2)N(C(=O)C2CC2)C2CCN(C(=O)C3CC3)CC2)cc1 (centres undefined)	> 10000	< 5.00			< 4.00	
Fc1cc(Cl)ccc1C(NC1CCN(c2ccc(Cl)cc2)CC1)c1cccnc1 (centres undefined)	25	8.12			4.33	
CCOC(=O)N1CCN(C(c2cccnc2)c2ccc(Cl)cc2F)CC1 (centres undefined)	76	7.62			4.22	
CC(C)(O)CN1CCC(NC(c2ccc(Cl)cc2)c2cccnc2)CC1 (centres undefined)	1020	6.25			< 4.00	
NC(=O)c1ccccc1C(O)(c1ccc(Cl)cc1)c1cccnc1 (centres undefined)	140	7.48			< 4.00	
O=C(Nc1ccc(Cl)cc1)N1CCC(NC(c2ccc(Cl)cc2)c2cccnc2)CC1 (centres undefined)	86	7.60			4.36	
CC(=O)NC(c1ccc(C(F)(F)F)cc1)c1cnccn1 (centres undefined)	> 10000	< 5.00			< 4.00	
CC1(C)COC(c2cccc(C(O)(c3ccc(Cl)cc3)c3cncnc3)c2)=N1 (centres undefined)	890	6.30			< 4.00	
CN(C)C(=O)N1CCC(NC(c2ccc(C(F)(F)F)cc2)c2cnccn2)CC1 (centres undefined)	920	6.30			< 4.00	

SMILES	IC90 (Trypanosoma cruzi [1]) [nM]	pIC50 (Trypanosoma cruzi [2]; [4])	pIC50 (L6)	pIC50 [3]	pIC50 ([3]; IC50)	pIC50 (Trypanosoma cruzi [2])
Cc1noc(C)c1C(=O)NC1CCN(C(c2ccc(C(F)(F)F)cc2)c2cccnc2)CC1 (centres undefined)	28	8.05			< 4.00	
Clc1ccc(C(c2cncnc2)N2CCNCC2)cc1 (centres undefined)	> 1000	< 6.00			< 4.00	
CC(C)CC(=O)N1CCN(C(c2ccc(Cl)cc2)c2cncnc2)CC1 (centres undefined)	910	6.37			< 4.00	
CC(C)Oc1ccc(C(O)(c2cccnc2)c2ccccc2F)cc1 (centres undefined)	240	8.48		4.13		
CC(C)CC(=O)N1CCC(NC(c2ccc(C(F)(F)F)cc2)c2cnccn2)CC1 (centres undefined)	660	6.57			< 4.00	
O=C(Nc1ccccc1)NC1CCN(C(c2ccc(Cl)cc2)c2cccnc2)CC1 (centres undefined)	75	7.70			4.12	
CC(C)(C)NC(=O)N1CCC(NC(c2ccc(C(F)(F)F)cc2)c2cncs2)CC1 (centres undefined)	128	7.17			< 4.00	
Cc1ccc(-c2c(Cl)nc(C#N)n2S(=O)(=O)N(C)C)cc1 [Cyazofamid]	> 100000	4.33		4.13		
OC1CCN(C(c2ccc(C(F)(F)F)cc2)c2cnccn2)CC1 (centres undefined)	> 10000	5.19			< 4.00	
O=C(c1ccccc1)N1CC(NC(c2ccc(C(F)(F)F)cc2)c2cccnc2)C1 (centres undefined)	720	6.72			4.08	
OC(c1cccnc1)(c1cccc(F)c1)c1ccccc1Cl (centres undefined)	> 1000	6.25		< 4.00		6.12
OC(c1ccc(Cl)cc1)(c1cccnc1)c1c(F)cccc1Cl (centres undefined)	469	6.76		4.17		
O=C(Nc1ccccc1)N1CCN(C(c2ccc(Cl)cc2)c2cncnc2)CC1 (centres undefined)	310	6.92			4.08	
O=C(NC(c1ccc(Cl)cc1)c1cccnc1)c1ccc(Cl)cc1 (centres undefined)	900	6.35			4.24	
FC(F)(F)c1ccc(C(c2cncnc2)N2CCN(c3nccs3)CC2)cc1 (centres undefined)	266	6.96			4.17	
CC(C)S(=O)(=O)N1CCN(C(c2ccc(Cl)cc2)c2cncnc2)CC1 (centres undefined)	720	6.64			< 4.00	
Fc1ccc(N2CCC(NC(c3cccnc3)c3ccc(Cl)cc3F)CC2)cc1F (centres undefined)	42	7.85			4.47	
